Experimental data published in article PMC5321639, “Design and pharmacodynamics of recombinant NZ2114 histidine mutants with improved activity against methicillin-resistant Staphylococcus aureus” (AMB Express, 2017).
Values after ≈ are worked out from the molar mass of the structure shown. Where a SMILES comes first, the peptide text is derived from it. Bridges are numbered along the chain shown (N, C = ends).

Experiments:
S. aureus ATCC25923 = assay: MIC assay; type: cell-based, Staphylococcus aureus; details: MHB, 1 × 10^5 CFU/ml, 37 °C, 18–24 h, no visible growth, triplicate
Protocol: (§1) The peptide solutions were diluted twofold with the range of final concentrations were 0.015–32 µg/ml (0.003–7.273 µM) for purified H1, H2, H3, H6, and H8. The test strains were grown in MHB medium at 37 °C to an OD600 of 0.4 and diluted to 1 × 10^5 CFU/ml. The 10 µl peptide and 90 µl cell suspension were added into each well. All assays were performed in triplicate. The antimicrobial activity of NZ2114 and vancomycin were tested as positive controls. The plates were incubated at 37 °C for 18–24 h. MIC was defined as the lowest peptide concentration of ones at which there was no visible growth (Tian et al. [2009]).

S. aureus ATCC6538 = assay: MIC assay; type: cell-based, Staphylococcus aureus; details: MHB, 1 × 10^5 CFU/ml, 37 °C, 18–24 h, no visible growth, triplicate
Protocol: as §1

S. pneumoniae CVCC1.8722 = assay: MIC assay; type: cell-based, Streptococcus pneumoniae; details: MHB, 1 × 10^5 CFU/ml, 37 °C, 18–24 h, triplicate
Protocol: as §1

S. pneumoniae CVCC2350 = assay: MIC assay; type: cell-based, Streptococcus pneumoniae; details: MHB, 1 × 10^5 CFU/ml, 37 °C, 18–24 h, triplicate
Protocol: as §1

S. enteritidis CMCC50336 = assay: MIC assay; type: cell-based, Salmonella enteritidis; details: MHB, 1 × 10^5 CFU/ml, 37 °C, 18–24 h, triplicate
Protocol: as §1

[1] = system: S. aureus ATCC43300 (MRSA); assay: Time-kill curve assay; type: cell-based, Staphylococcus aureus; details: for time for bacterial counts to decrease to 2 log10 CFU/ml (a 99.9% reduction): start 1 × 10^5 CFU/ml, 37 °C, triplicate
Protocol: Bacterial culture (S. aureus ATCC43300) was diluted to 1 × 10^5 CFU/ml and H1, H2, and H3 were added. […] The mixture was cultivated at 250 rpm, 37 °C. The 100-µl samples were taken from each flask at 0, 2, 4, 6, 8, 12 and 24 h of incubation, and serial dilutions of samples were plated to count visible colonies. Vancomycin was tested in the same way as a positive control and the culture without antimicrobial agent as a negative control (Xiong et al. [2011]). All experiments were performed in triplicate.

S. aureus ATCC43300 [2] = assay: microbe, parasite or virus in culture; type: cell-based, Staphylococcus aureus; details: for MICc (MIC of the most effective combination): checkerboard; for FIC: MICc/MICa
Protocol: The MIC values of four antibiotics (vancomycin, ampicillin, rifampicin and ciprofloxacin) to S. aureus ATCC43300 were tested as the MIC assay described above. The peptide solutions and antibiotics were diluted twofold with the final concentrations ranging from 1/16 to 8× MIC, and added into 96-well plates in a checkerboard fashion (White et al. [1996]). The results of combination were evaluated by calculating the fractional inhibitory concentration index (FICI) of each combination. FIC of H1, H2, H3=MIC of H1, H2, H3, respectively, in combination with antibiotic/MIC of H1, H2, H3 alone; FIC of antibiotics=MIC of antibiotic in combination with peptide/MIC of antibiotic alone; FICI = FIC of H1, H2, H3+ antibiotic, respectively. The result of interaction between two antimicrobial drugs was determined according to: FICI ≤ 0.5 refers to synergy, 0.5 < FICI ≤ 1 refers to additivity, 1 < FICI ≤ 4 refers to indifference, and FICI > 4 is defined as antagonism (Tsuji and Rybak [2006]).

mice red blood cells = assay: Hemolytic assay; type: cell-based; details: 0.23 to 7.27 μM (1–32 μg/ml), 37 °C 1 h
Protocol: The mice blood cells were washed three times in stroke-physiological saline solution (0.9% NaCl) and centrifuged at 4 °C, 2000 rpm for 5 min. A 50-μl cell was diluted to 8% (v/v), added into 96-well plates, and mixed with 50-μl peptide to the final concentrations ranging from […]. The plates were incubated at 37 °C for 1 h, and centrifuged at 4 °C, 5000 rpm for 5 min. The absorbance of supernatants was measured at 540 nm, and 0 and 100% hemolysis was measured by 0.9% NaCl and 0.1% Triton X-100, respectively. The hemolysis percentages were calculated by the following equation: [(Abs540 nm in H1, H2, H3 solution − Abs540 nm in 0.9% NaCl)/(Abs540 nm in 0.1% Triton X-100 − Abs540 nm in 0.9% NaCl)] ×100% (Jiao et al. [2015]).

S. aureus ATCC43300 [3] = assay: Effect of temperature on activity (MIC); type: cell-based, Staphylococcus aureus; details: then MIC assay
Protocol: as §1
(§2) The effect of pH, temperature, NaCl concentration and proteinase on the activity of peptides was evaluated. Peptides were diluted twofold, then adjusted to a pH range from 2.0 to 10.0 and incubated at 37 °C for 4 h. The thermal stability of purified peptides was determined after 1-h incubation of peptides at 4, 20, 40, 60, 80 and 100 °C in deionized water, respectively. Aliquots of peptides were incubated in various proteinases solutions [pepsin (pH 2.0), trypsin (pH 8.0), proteinase K (pH 7.0)] at a ratio of 1:10, w/w (proteinase: peptide) at 37 °C for 3 h. For the ion stability, peptides were incubated in 50, 100, 200, 300, 400, 500 mM sodium chloride solutions, respectively. Other methods and conditions were prepared as the MIC assay described above (Li et al. [2015]; Qu et al. [2016]).

S. aureus ATCC43300 [4] = assay: Effect of NaCl concentration on activity (MIC); type: cell-based, Staphylococcus aureus
Protocol: as §1, §2

S. aureus ATCC43300 [5] = assay: Effect of proteinases on activity (MIC); type: cell-based, Staphylococcus aureus; details: trypsin (pH 8.0), 1:10 w/w proteinase:peptide, 37 °C for 3 h, then MIC assay
Protocol: as §1, §2

[6] = in combination with ciprofloxacin

SMILES: CC[C@H](C)[C@@H]1NC(=O)[C@H](CO)NC(=O)[C@H](CCCCN)NC(=O)[C@@H]2CSSC[C@@H](C(=O)N[C@@H](Cc3ccc(O)cc3)C(=O)O)NC(=O)[C@H](CCCCN)NC(=O)[C@@H]3CSSC[C@H](NC(=O)[C@H](CCCNC(=N)N)NC(=O)[C@H](CC(C)C)NC(=O)[C@H](CC(=O)O)NC(=O)[C@H](CC(=O)O)NC(=O)[C@H](CCC(=O)O)NC(=O)[C@H](CC(N)=O)NC(=O)[C@H](Cc4c[nH]c5ccccc45)NC(=O)[C@@H]4CCCN4C(=O)CNC(=O)[C@H](CC(N)=O)NC(=O)[C@@H](NC(=O)CNC(=O)[C@H](Cc4ccccc4)NC(=O)CN)CSSC[C@H](NC(=O)[C@H](Cc4ccc(O)cc4)NC(=O)CNC(=O)CNC(=O)[C@H](CCCCN)NC(=O)[C@H](Cc4ccc(O)cc4)NC(=O)CNC(=O)[C@H](CCCCN)NC1=O)C(=O)N[C@@H](C)C(=O)N[C@@H](CCCCN)C(=O)NCC(=O)NCC(=O)N[C@@H](Cc1ccccc1)C(=O)N[C@@H](C(C)C)C(=O)N3)C(=O)N[C@@H](CCCNC(=N)N)C(=O)N[C@@H](CC(N)=O)C(=O)N[C@@H](Cc1c[nH]cn1)C(=O)N2 [H2] (H-GFGCNGPWNEDDLRCRNHCKSIKGYKGGYCAKGGFVCKCY-OH; disulfide 4-30, 15-37, 19-39 (inferred); N-terminus and C-terminus assumed)
- MIC (S. aureus ATCC25923): 0.028 µM (≈ 0.124 µg/mL)
- MIC (S. aureus ATCC6538): 0.057 µM (≈ 0.253 µg/mL)
- MIC (S. pneumoniae CVCC1.8722): 0.227 µM (≈ 1.01 µg/mL)
- MIC (S. pneumoniae CVCC2350): 0.227 µM (≈ 1.01 µg/mL)
- MIC (S. enteritidis CMCC50336): >7.273 µM
- time for bacterial counts to decrease to 2 log10 CFU/ml (a 99.9% reduction) ([1]; 1× MIC): 1.5 h
- regrowth of pathogens up to 24 h ([1]; 1×, 2× and 4× MIC, maintained to 24 h): without regrowth
- time for bacterial counts to decrease to 2 log10 CFU/ml (a 99.9% reduction) ([1]; 2× MIC): 1 h
- time for bacterial counts to decrease to 2 log10 CFU/ml (a 99.9% reduction) ([1]; 4× MIC): 0.5 h
- MICc (MIC of the most effective combination) (S. aureus ATCC43300 [2]; in combination with ampicillin): 0.113 µM
- MICc (MIC of the most effective combination) (S. aureus ATCC43300 [2]; [6]): 0.227 µM
- MICc (MIC of the most effective combination) (S. aureus ATCC43300 [2]; in combination with rifampicin): 0.056 µM
- MICc (MIC of the most effective combination) (S. aureus ATCC43300 [2]; in combination with vancomycin): 0.113 µM
- MIC (S. aureus ATCC43300 [2]; drug alone, read-out: MICa (MIC of drug alone)): 0.113 µM
- FIC (S. aureus ATCC43300 [2]; in combination with ampicillin): 1
- FIC (S. aureus ATCC43300 [2]; [6]): 2
- FIC (S. aureus ATCC43300 [2]; in combination with rifampicin): 0.5
- FIC (S. aureus ATCC43300 [2]; in combination with vancomycin): 1
- hemolytic activity (mice red blood cells): little or no hemolytic activity
- MIC after incubation at 4 °C (S. aureus ATCC43300 [3]; 1 h at 4 °C in deionized water): 0.114 µM (≈ 0.505 µg/mL)
- MIC after incubation at 20 °C (S. aureus ATCC43300 [3]; 1 h at 20 °C in deionized water): 0.114 µM (≈ 0.505 µg/mL)
- MIC after incubation at 40 °C (S. aureus ATCC43300 [3]; 1 h at 40 °C in deionized water): 0.114 µM (≈ 0.505 µg/mL)
- MIC after incubation at 60 °C (S. aureus ATCC43300 [3]; 1 h at 60 °C in deionized water): 0.114 µM (≈ 0.505 µg/mL)
- MIC in 50 mM NaCl (S. aureus ATCC43300 [4]; incubated in 50 mM sodium chloride solution): 0.114 µM (≈ 0.505 µg/mL)
- MIC in 100 mM NaCl (S. aureus ATCC43300 [4]; incubated in 100 mM sodium chloride solution): 0.114 µM (≈ 0.505 µg/mL)
- MIC in 300 mM NaCl (S. aureus ATCC43300 [4]; incubated in 300 mM sodium chloride solution): 0.227 µM (≈ 1.01 µg/mL)
- MIC in 400 mM NaCl (S. aureus ATCC43300 [4]; incubated in 400 mM sodium chloride solution): 0.227 µM (≈ 1.01 µg/mL)
- MIC in 500 mM NaCl (S. aureus ATCC43300 [4]; incubated in 500 mM sodium chloride solution): 0.227 µM (≈ 1.01 µg/mL)
- MIC after Trypsin (S. aureus ATCC43300 [5]): 0.454 µM (≈ 2.01 µg/mL)
